Measured values: patent US20250109127A1, “METHODS OF USE OF PHENOXYPROPYLAMINE COMPOUNDS TO TREAT DEPRESSION” (Minerva Neurosciences, Inc., priority 2013, published 2025)
Where “and” joins values, the source holds several entries; their conditions need not be identical. Equal values may be shown once. Where a name gives a salt, the structure may show the parent alone.

Tested on: norepinephrin release in the rat prefrontal cortex
Assay: Microdialysis: norepinephrine release in prefrontal cortex after I.P. administration
Assay type: in vivo
Settings: for NOREPINEPHRIN (% of respective basal), individual animal: 0.3 mg/kg I.P., c2-c9 = R#11,12,18,23,29,30,17,24; for NOREPINEPHRIN (% of respective basal), individual animal / Norepinephrin release, individual animals: hydrochloride; for Norepinephrin release, MEAN / Norepinephrin release, individual animals: 3 mg/kg IP; for Norepinephrin release, MEAN: n = 8; for Norepinephrin release, individual animals: per animal R#15,16,21,22,27,28,09,10
Procedure: The aim of the study was to evaluate, using microdialysis, the effects of an intraperitoneal (I.P.) administration in rats of three different doses of SON-117 on dopamine and its metabolites, serotonin and its metabolite (5-HIAA), and norepinephrine levels in prefrontal cortex.
Thirty-two adult male Wistar rats were used for the whole study (4 groups of eight animals planned for the study, Table 1).
Surgery was performed on rats weighing about 300 g at the beginning of the experiments. Rats were anaesthetized with Ketamine (50 mg/kg) & Xylazine (15 mg/kg) by intramuscular administration. The animals were placed in a stereotaxic apparatus in the flat-skull position at a constant setting of −3.3 mm between ear bars and the incisor bar. The animals were treated with a local anesthesic (xylocaine 1%, Astra Zeneca) and an analgesic (Temgesic, from Schering Plough, 0.05 mg/kg, s.c.). A rostrocaudal midline incision was made with a lancet to expose the dorsal skull surface. The “stereotaxic zero” was defined by the Bregma in accordance with Paxinos and Watson's atlas (1986). A hole was drilled in the skull with a drill and the meninges were pierced with a sterile needle to implant a CMA12 guide cannula which later received the dialysis probe.
Coordinates used for implanting guide cannula in prefrontal cortex from Bregma were anteroposterior 3.7 mm, mediolateral 0.8 mm, and dorsoventral −2 mm (top of the probe was at −5 mm). The guide cannula was fixed to the skull with two stainless steel screws (1.88 mm outside diameter) anchored. An application of dental cement was added. A plastic collar allowed each animal to be tethered to a Swivel assembly of the CMA 120 awake animal system. Following surgery, rats were kept in individual cages and allowed to recover for a minimum of 3-5 days before the experimentation. The rats were handled and put in plastic bowl for 10 min at least every day to habituate the animals to their new environment for the dialysis. An I.P. administration with saline was also performed every day.
Dialysis probes (CMA12/3 mm, membrane, 20 kD cut-off, Carnegie Medicine, Stockholm, Sweden), were carefully washed before inserting into the guide cannula. The wash was performed with the artificial cerebrospinal fluid (aCSF) medium (NaCl 147 mM, KCl 2.7 mM, CaCl2 1.2 mM, MgCl2 0.85 mM) at room temperature. The dialysis system was then equilibrated at 20° C. at a perfusion rate of 1 μl/min with a Carnegie pump (CMA100). All catheters (FEP tubing, internal volume of 1.2 μl/10 cm, and tubing adaptors) used for microdialysis were treated in the same conditions.
The probes duly prepared were inserted into the guide cannula and the CMA120 Swivel assembly secured to the animal using a plastic collar. Flow through the dialysis probe with aCSF was maintained at a rate of 1 μl/min during the whole experimentation. The first four fractions (corresponding to 2 hours) were discarded to avoid the effects of parenchymal disturbance and to ensure that an approximate steady-state level was reached. Fractions were then collected over a period of 8.5 h during which time the animals remained quiet. The dialysates were automatically collected with an autosampler (microfraction collector CMA 140, Carnegie Medicin) and stored at −80° C. until analysis. […] Perfusion was then maintained for 7 hours with aCSF. The dialysates (30 μl) were collected into 300 μl vials, transferred into dry ice and then kept frozen (−80° C.) until analysis. Frozen samples were shipped to a partner for analysis. At the end of the microdialysis study, a PBS with colored ink was perfused through the probe in order to visualize the dialyzed area.
Catecholamine assay: Concentrations of dopamine, DOPAC, HVA, 5-HIAA, 5-HT, and norepinephrin were determined for each sample by HPLC coupled with electrochemical detection. […]

Cc1nnc(-c2cc3c(OC[C@@H](O)CN4CCC(c5ccc(Cl)c(Cl)c5)CC4)cccc3o2)o1 [SON-117, (S)-1-(4-(3,4-dichlorophenyl)piperidino)-3-(2-(5-methyl-1,3,4-oxadiazol-2-yl)benzo(b)furan-4-yloxy)-2-propanol hydrochloride]
NOREPINEPHRIN (% of respective basal), individual animal (T0-T30 min): 93.23 % of respective basal and 109.66 % of respective basal and 94.50 % of respective basal and 91.56 % of respective basal and 103.16 % of respective basal and 122.80 % of respective basal and 169.48 % of respective basal and 88.04 % of respective basal
NOREPINEPHRIN (% of respective basal), individual animal (T30-T1 h): 104.42 % of respective basal and 107.28 % of respective basal and 98.29 % of respective basal and 99.12 % of respective basal and 108.78 % of respective basal and 113.81 % of respective basal and 113.33 % of respective basal and 88.14 % of respective basal
NOREPINEPHRIN (% of respective basal), individual animal (T1 h 30-T2 h): 99.20 % of respective basal and 86.76 % of respective basal and 108.98 % of respective basal and 92.71 % of respective basal and 104.84 % of respective basal and 66.21 % of respective basal and 122.80 % of respective basal and 84.63 % of respective basal
NOREPINEPHRIN (% of respective basal), individual animal (T1 h-T1 h 30): 86.88 % of respective basal and 98.78 % of respective basal and 112.17 % of respective basal and 98.26 % of respective basal and 98.75 % of respective basal and 106.99 % of respective basal and 111.81 % of respective basal and 90.76 % of respective basal
NOREPINEPHRIN (% of respective basal), individual animal (T2 h 30-T3 h): 84.23 % of respective basal and 104.60 % of respective basal and 128.99 % of respective basal and 92.07 % of respective basal and 101.47 % of respective basal and 118.46 % of respective basal and 126.06 % of respective basal and 98.73 % of respective basal
NOREPINEPHRIN (% of respective basal), individual animal (T2 h-T2 h 30): 76.65 % of respective basal and 101.56 % of respective basal and 126.15 % of respective basal and 88.09 % of respective basal and 101.06 % of respective basal and 105.86 % of respective basal and 113.08 % of respective basal and 89.61 % of respective basal
NOREPINEPHRIN (% of respective basal), individual animal (T3 h 30-T4 h): 100.21 % of respective basal and 138.06 % of respective basal and 105.65 % of respective basal and 106.80 % of respective basal and 135.47 % of respective basal and 201.02 % of respective basal and 113.60 % of respective basal
NOREPINEPHRIN (% of respective basal), individual animal (T3 h-T3 h 30): 120.36 % of respective basal and 139.04 % of respective basal and 95.95 % of respective basal and 93.13 % of respective basal and 129.61 % of respective basal and 137.11 % of respective basal and 99.05 % of respective basal
NOREPINEPHRIN (% of respective basal), individual animal (T4 h 30-T5 h): 91.48 % of respective basal and 153.66 % of respective basal and 179.53 % of respective basal and 95.60 % of respective basal and 107.83 % of respective basal and 118.17 % of respective basal and 146.73 % of respective basal and 113.45 % of respective basal
NOREPINEPHRIN (% of respective basal), individual animal (T4 h-T4 h 30): 88.77 % of respective basal and 125.81 % of respective basal and 155.70 % of respective basal and 105.70 % of respective basal and 109.87 % of respective basal and 112.18 % of respective basal and 148.00 % of respective basal and 108.96 % of respective basal
NOREPINEPHRIN (% of respective basal), individual animal (T5 h 30-T6 h): 91.57 % of respective basal and 160.34 % of respective basal and 198.08 % of respective basal and 89.28 % of respective basal and 123.68 % of respective basal and 111.49 % of respective basal and 183.96 % of respective basal and 124.88 % of respective basal
NOREPINEPHRIN (% of respective basal), individual animal (T5 h-T5 h 30): 62.74 % of respective basal and 157.36 % of respective basal and 184.76 % of respective basal and 91.16 % of respective basal and 116.17 % of respective basal and 125.90 % of respective basal and 153.13 % of respective basal and 108.22 % of respective basal
NOREPINEPHRIN (% of respective basal), individual animal (T6 h-T6 h 30): 107.74 % of respective basal and 153.11 % of respective basal and 204.06 % of respective basal and 115.67 % of respective basal and 145.69 % of respective basal and 126.68 % of respective basal
Norepinephrin release, MEAN (T0-T30 min): 95.03 % of respective basal
Norepinephrin release, MEAN (T30-T1 h): 97.36 % of respective basal
Norepinephrin release, individual animals (T30-T1 h): 88.36 % of respective basal and 115.03 % of respective basal and 81.23 % of respective basal and 99.91 % of respective basal and 84.13 % of respective basal and 101.13 % of respective basal and 112.87 % of respective basal and 96.25 % of respective basal
Norepinephrin release, MEAN (T1 h 30-T2 h): 89.60 % of respective basal
Norepinephrin release, individual animals (T1 h 30-T2 h): 82.12 % of respective basal and 112.19 % of respective basal and 79.22 % of respective basal and 97.76 % of respective basal and 65.77 % of respective basal and 100.10 % of respective basal and 89.95 % of respective basal and 89.72 % of respective basal
Norepinephrin release, MEAN (T1 h-T1 h 30): 107.89 % of respective basal
Norepinephrin release, individual animals (T1 h-T1 h 30): 172.07 % of respective basal and 112.74 % of respective basal and 81.36 % of respective basal and 103.59 % of respective basal and 89.22 % of respective basal and 99.07 % of respective basal and 110.12 % of respective basal and 94.94 % of respective basal
Norepinephrin release, MEAN (T2 h 30-T3 h): 89.71 % of respective basal
Norepinephrin release, individual animals (T2 h 30-T3 h): 86.59 % of respective basal and 101.34 % of respective basal and 74.62 % of respective basal and 92.57 % of respective basal and 76.53 % of respective basal and 86.90 % of respective basal and 101.62 % of respective basal and 97.13 % of respective basal
Norepinephrin release, MEAN (T2 h-T2 h 30): 89.42 % of respective basal
Norepinephrin release, individual animals (T2 h-T2 h 30): 76.71 % of respective basal and 108.71 % of respective basal and 69.68 % of respective basal and 89.57 % of respective basal and 80.18 % of respective basal and 97.07 % of respective basal and 98.74 % of respective basal and 94.71 % of respective basal
